Experimental data published in PMC6005765 (Bioorganic & medicinal chemistry letters, 2018).
Starred links: 1 amine or outer side, 2 acyl side, 3 side chain; linkers in the order of their positions; H or OH if unused. Non-standard residues stand in square brackets, D forms with d. Residues, ends and D or L forms follow the SMILES beside them. No end group written: not given here. Phe(2-(3-thienyl)) = O=C([C@H](Cc1ccccc1-c1ccsc1)N[*:1])[*:2]; Phe(2-Ph) = N[C@@H](Cc1ccccc1-c1ccccc1)C(=O)O; Dmt = Cc1cc(O)cc(C)c1C[C@H](N)C(=O)O

Key:
[1] = target: DOP (Homo sapiens, UniProt P41143); test: EPAC cAMP BRET-based biosensor assay, DOP; assay type: cell-based
[2] = target: MOP (Homo sapiens, UniProt P35372); test: EPAC cAMP BRET-based biosensor assay, MOP; assay type: cell-based
[3] = target: δ opioid receptor (DOP) (Homo sapiens, UniProt P41143); assay type: binding
[4] = test system: rats; test: Tail-flick test on rats after intrathecal administration; assay type: in vivo, rat
[5] = target: μ opioid receptor (MOP) (Homo sapiens, UniProt P35372); assay type: binding; details: for Selectivity IC50δ/IC50μ: ratio DOP IC50 / MOP IC50
[6] = test system: guinea pig ileum (GPI), MOP; details: read-out: IC50 (GPI); agonist potency
[7] = target: δ opioid receptor (UniProt P41143)
[8] = target: μ opioid receptor (UniProt P35372)
[9] = target: δ opioid receptor (UniProt P41143); remark: listed apart in the source
[10] = target: μ opioid receptor (UniProt P35372); remark: listed apart in the source
[11] = target: δ opioid receptor (UniProt P41143); test: radioligand binding
[12] = target: μ opioid receptor (UniProt P35372); test: radioligand binding

Sequence of MOP (P35372 whole entry): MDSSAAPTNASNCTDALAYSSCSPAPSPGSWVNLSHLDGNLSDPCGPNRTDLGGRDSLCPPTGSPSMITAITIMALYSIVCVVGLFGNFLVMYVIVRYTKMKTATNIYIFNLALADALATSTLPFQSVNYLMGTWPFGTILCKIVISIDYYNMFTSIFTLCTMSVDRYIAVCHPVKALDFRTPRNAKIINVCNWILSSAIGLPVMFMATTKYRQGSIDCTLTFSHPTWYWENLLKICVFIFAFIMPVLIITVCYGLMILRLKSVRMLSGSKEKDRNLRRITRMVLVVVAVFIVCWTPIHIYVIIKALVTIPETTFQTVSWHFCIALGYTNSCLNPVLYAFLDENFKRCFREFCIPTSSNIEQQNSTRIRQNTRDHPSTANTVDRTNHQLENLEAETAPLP
Sequence of μ opioid receptor (MOP) (P35372 whole entry, species assumed): as the sequence (P35372 whole entry) above

Cc1cc(O)cc(C)c1C[C@H](N)C(=O)N[C@H](CCCNC(=N)N)C(=O)N[C@@H](Cc1ccccc1)C(=O)NCC(N)=O [Compound 19, Dmt-D-Arg-Phe-Gly-NH2] (H-[Dmt][dR]FG-NH2)
EC50 [1]: 1.13 ± 0.2 nM | EC50 [2]: 0.008 ± 0.002 nM | IC50 [3]: 14 ± 2.7 nM | Duration of analgesic action on thermal nociception [4]: exceeding 60 min | Effectiveness in reversing nociceptive behavior relative to DAMGO [4]: 10 times | Fold increase in MOP affinity compared to DAMGO [5]: 10 fold | IC50 [5]: 0.1 ± 0.06 nM | Selectivity IC50δ/IC50μ [5]: 140 | IC50 [6]: 2.26 ± 0.37 nM

Cc1cc(O)cc(C)c1C[C@H](N)C(=O)N[C@H](C)C(=O)N[C@@H](Cc1ccccc1)C(=O)NCC(N)=O [Compound 20, Dmt-D-Ala-Phe-Gly-NH2] (H-[Dmt][dA]FG-NH2)
EC50 [1]: 2.4 ± 1 nM | EC50 [2]: 0.012 ± 0.0007 nM | IC50 [3]: 22.6 ± 4.6 nM | Duration of analgesic action on thermal nociception [4]: exceeding 60 min | Effectiveness in reversing nociceptive behavior relative to DAMGO [4]: 10 times | Fold increase in MOP affinity compared to DAMGO [5]: 10 fold | IC50 [5]: 0.14 ± 0.05 nM | Selectivity IC50δ/IC50μ [5]: 161 | IC50 [6]: 1.5 ± 0.12 nM

CC(C)=Cc1ccccc1C[C@H](NC(=O)[C@@H](CCCNC(=N)N)NC(=O)[C@@H](N)Cc1c(C)cc(O)cc1C)C(=O)NCC(N)=O [Compound 14]
Duration of analgesic action on thermal nociception [4]: exceeding 60 min

Cc1cc(O)cc(C)c1C[C@H](N)C(=O)N[C@H](CCCNC(=N)N)C(=O)N[C@@H](Cc1ccccc1-c1ccc(C(F)(F)F)cc1)C(=O)NCC(N)=O [Compound 11, Dmt-D-Arg-Phe(2-(4-CF3-phenyl))-Gly-NH2]
EC50 [1]: 26.8 ± 6 nM | EC50 [2]: 0.12 ± 0.05 nM | IC50 [3]: 39.2 ± 17 nM | IC50 [5]: 0.07 ± 0.09 nM | Selectivity IC50δ/IC50μ [5]: 560 | IC50 [6]: 1.26 ± 0.17 nM

Cc1cc(O)cc(C)c1C[C@H](N)C(=O)N[C@H](C)C(=O)N[C@@H](Cc1ccccc1-c1ccccc1)C(=O)NCC(N)=O [Compound 15, Dmt-D-Ala-Phe(2-phenyl)-Gly-NH2] (H-[Dmt][dA][Phe(2-Ph)]G-NH2)
Duration of analgesic action on thermal nociception [4]: exceeding 60 min

Cc1cc(O)cc(C)c1C[C@H](N)C(=O)N[C@H](CCCNC(=N)N)C(=O)N[C@@H](Cc1ccccc1-c1ccc(Cl)cc1)C(=O)NCC(N)=O [Compound 13, Dmt-D-Arg-Phe(2-(4-Cl-phenyl))-Gly-NH2]
IC50 [3]: 346 ± 10 nM | IC50 [5]: 0.35 ± 0.06 nM | Selectivity IC50δ/IC50μ [5]: 989 | IC50 [6]: 2.39 ± 0.09 nM

C=Cc1ccccc1C[C@H](NC(=O)[C@@H](C)N(C)C(=O)[C@@H](N)Cc1c(C)cc(O)cc1C)C(=O)NCC(N)=O [Compound 18, Dmt-N-Me-D-Ala-Phe(2-vinyl)-Gly-NH2]
EC50 [1]: 4.4 ± 2 nM | EC50 [2]: 0.003 ± 0.004 nM | IC50 [3]: 59.4 ± 0.8 nM | IC50 [5]: 0.36 ± 0.09 nM | Selectivity IC50δ/IC50μ [5]: 165 | IC50 [6]: 0.641 ± 0.045 nM

Cc1cc(O)cc(C)c1C[C@H](N)C(=O)N[C@H](CCCNC(=N)N)C(=O)N[C@@H](Cc1ccccc1-c1ccc(F)cc1)C(=O)NCC(N)=O [Compound 12, Dmt-D-Arg-Phe(2-(4-F-phenyl))-Gly-NH2]
IC50 [3]: 435 ± 26 nM | IC50 [5]: 0.47 ± 0.06 nM | Selectivity IC50δ/IC50μ [5]: 925 | IC50 [6]: 0.801 ± 0.086 nM

B1: Dmt-D-Ala-Phe-Gly-NH2 (peptide)
peptide: [Dmt][dA]FG-NH2
modifications: N-terminus assumed
SMILES: Cc1cc(O)cc(C)c1C[C@H](N)C(=O)N[C@H](C)C(=O)N[C@@H](Cc1ccccc1)C(=O)NCC(N)=O
EPAC DOP EC50 (EPAC cAMP BRET-based biosensor assay) [7]: 2.4 nM | EPAC MOP EC50 (EPAC cAMP BRET-based biosensor assay) [8]: 0.012 nM | IC50 in the mouse vas deferens (MVD) assay [9]: 1.15 nM | IC50 in the guinea pig ileum (GPI) assay [10]: 1.5 nM

B2: Dmt-D-Ala-Phe(2-(3-thienyl))-Gly-NH2 (peptide)
peptide: [Dmt][dA][Phe(2-(3-thienyl))]G-NH2
modifications: N-terminus assumed
SMILES: Cc1cc(O)cc(C)c1C[C@H](N)C(=O)N[C@H](C)C(=O)N[C@@H](Cc1ccccc1-c1ccsc1)C(=O)NCC(N)=O
EPAC MOP EC50 (EPAC cAMP BRET-based biosensor assay) [8]: 34.8 nM | IC50 in the mouse vas deferens (MVD) assay [9]: 2.16 nM | IC50 in the guinea pig ileum (GPI) assay [10]: 1.27 nM | IC50 [11]: 687 nM | IC50 [12]: 240 nM
